Assays:
[1] = system: ovarian cancer cell line, CAOV-3; assay: MiCK-type apoptosis drug screening assay, CAOV-3; type: cell-based; details: CAOV-3 cells; as Example 1 but with higher drug concentrations
Excerpt: (§1) KU=(VmaxDrug Treated−VmaxControl)×60×y/(ODcell−ODblank).
(§2) Vmax is the maximum kinetic rate, which is the slope of the steep increase in the OD v. time plot when cells are undergoing apoptosis. Vmax in this equation is given in milli-optical density units/hour (mOD/h). ODcell is the initial OD of the control containing cells and ODblank is the initial OD of a blank well containing only medium or medium and drug (the drug may be omitted for some drugs, but for colored drugs in particular it may be included in the blank). y is a coefficient dependent on the cell type being assayed and may be determined experimentally through observation of the cell lines. Further information regarding this equation may be found in Kravtsov et al.
Cancer cells were obtained from exponentially growing cultures in RPMI 1640 medium without phenol red supplemented with 10% heat-inactivated fetal bovine serum, 100 U/ml penicillin and 100 μg/mL streptomycin (complete medium) in humidified air with 5% CO2 at 37° C. Cells were harvested, washed with pre-warmed medium and resuspended in complete medium. Appropriate cell counts and viability were tested.
Cells from each cell line in complete medium were placed in wells of a 96-well plate at a concentration of 2 to 5×10^5 cells/ml. Various dilutions of the drug candidate, Idarubicin, were added to the wells in 5 μL aliquots. Final concentrations for the drug candidate were 0.01, 0.1, 0.5, 1, 5, 10 and 20 μM. The plates were incubated at 37° C. for 30 minutes in a humidified 5% CO2 atmosphere. After this adjustment period, 30 μl of sterile mineral oil was layered on top of each well. The microtiter plate was placed in an incubated spectrophotometer chamber (37° C.) and OD at 600 nm was measured every 5 minutes for a period of 48 hours. The reader was calibrated to zero absorbance using well containing only complete medium and no cells. All tests were performed in triplicate.
Data acquisition and computation was performed using appropriate software. OD readings were plotted against time to provide a kinetic representation of cell responses to the drugs and drug candidate. Kinetic units were calculated for each test well. A kinetic unit below three was considered a negative response and above 3 was considered a positive response. A kinetic unit between 1.5 and 3 was considered a marginal response.
A variety of anti-cancer drugs were tested against a single ovarian cancer cell line, CAOV-3, to determine their suitability for use against ovarian cancer. Tests were performed in a manner similar to those in Example 1, but with higher drug concentrations.

[2] = system: MOLT-3, an acute T-cell lymphoblastic leukemia; assay: MiCK-type apoptosis drug screening assay (OD 600 nm, kinetic units), MOLT-3; type: cell-based, human; details: MOLT-3 cells; 0.01-20 μM
Excerpt: as §1
as §2, with “al. […]” for “al.”
(§3) Cells from each cell line in complete medium were placed in wells of a 96-well plate at a concentration of 2 to 5×10^5 cells/ml. […] The microtiter plate was placed in an incubated spectrophotometer chamber (37° C.) and OD at 600 nm was measured every 5 minutes for a period of 48 hours. The reader was calibrated to zero absorbance using well containing only complete medium and no cells. […]
(§4) Data acquisition and computation was performed using appropriate software. OD readings were plotted against time to provide a kinetic representation of cell responses to the drugs and drug candidate. Kinetic units were calculated for each test well. […]

[3] = system: RAMOS, a B cell line derived from Burkitt's lymphoma; assay: MiCK-type apoptosis drug screening assay (OD 600 nm, kinetic units), RAMOS; type: cell-based, human; details: 0.01-20 μM
Excerpt: as §1
as §2, with “al. […]” for “al.”
as §3, §4

## CO[C@@]12[C@H](COC(N)=O)C3=C(C(=O)C(C)=C(N)C3=O)N1C[C@@H]1N[C@@H]12 [Mitomycin]
[1]
  response / suitability (in words): positive response at reasonable concentrations

## O=C1c2c(O)ccc(O)c2C(=O)c2c(NCCNCCO)ccc(NCCNCCO)c21 [Mitoxantrone]
[1]
  response / suitability (in words): positive response at reasonable concentrations

## CCC1=C[C@@H]2CN(C1)Cc1c([nH]c3ccccc13)[C@@](C(=O)OC)(c1cc3c(cc1OC)N(C)[C@H]1[C@@](O)(C(=O)OC)[C@H](OC(C)=O)[C@]4(CC)C=CCN5CC[C@]31[C@@H]54)C2 [Vinorelbine]
[1]
  response / suitability (in words): not suitable drugs for treating ovarian cancer

## O=C1[O][Pt]2([NH][C@@H]3CCCC[C@H]3[NH]2)[O]C1=O [Oxaliplatin]
[1]
  response / suitability (in words): not suitable drugs for treating ovarian cancer

## CC(=O)[C@]1(O)Cc2c(O)c3c(c(O)c2[C@@H](O[C@H]2C[C@H](N)[C@H](O)[C@H](C)O2)C1)C(=O)c1ccccc1C3=O [Idarubicin, 4-demethoxydaunorubicin]
[2]
  kinetic unit readings versus concentration (in words): higher kinetic unit readings at lower concentrations
[3]
  response versus concentration (in words): positive response was seen in the Ramos cell line only at high concentrations
[1]
  response / suitability (in words): positive response at reasonable concentrations

## CCc1c2c(nc3ccc(OC(=O)N4CCC(N5CCCCC5)CC4)cc13)-c1cc3c(c(=O)n1C2)COC(=O)[C@]3(O)CC [Irinotecan]
[1]
  response / suitability (in words): need to use high concentrations of the drug to achieve a positive response

## COc1cccc2c1C(=O)c1c(O)c3c(c(O)c1C2=O)C[C@@](O)(C(C)=O)C[C@@H]3O[C@H]1C[C@H](N)[C@H](O)[C@H](C)O1 [Daunorubicin]
[1]
  response / suitability (in words): positive response at reasonable concentrations
